This note sets out measurements from patent US9168259B2 (GRÜNENTHAL GMBH, priority 2010, dated 2015).

Molecules are shown by their SMILES.

This assay has as its target T1, KCNQ2/3 channels (Homo sapiens, UniProt O43525+O43526).
T1 construct: expressed in transfected cells
Briefly: Fluorescence assay using a voltage sensitive dye (fluorimetry). In kind it is cell-based. The following applies: CHO-K1 cells expressing KCNQ2/3; for Emax: CHO-K1, plateau effect relative to saturated retigabine (50 μM) = 100%, negative values = antagonistic, read-out: Fluorimetry % efficacy (retigabine = 100%); for EC50: IC50 where % efficacy is negative, read-out: Fluorimetry EC50/IC50. An excerpt: Method I. Fluorescence Assay Using a Voltage Sensitive Dye (Fluorimetry)
These voltage-sensitive dyes are fluorescent dyes and, therefore, are forming the link between cell potential influenced by KCNQ modulation and fluorescence intensity. A KCNQ agonist leads to an opening of the channel, potassium and dye efflux, a following hyperpolarization and a reduction of the inner fluorescence intensity in a kinetic protocol. If applying an ion jump by KCl depolarization, KCNQ agonists increase the ΔF/F value. An antagonist performs vice versa, respectively.
Therefore, ‘fluorimetry EC50’ is a measure for the compound potency. The compound efficacy is mirrored by ‘fluorimetry % efficacy’ (‘% Efficacy’) and refers to the maximum response achievable by the test compound, i.e. the plateau effect. This drug's plateau effect is related to the plateau effect, which can be achieved by applying a saturated concentration of a reference compound, e.g. Retigabine (50 μM), in independent wells of the same experimental plate or series.
[…] CHO-K1 cells expressing KCNQ2/3 channels are cultivated adherently at 37° C., 5% CO2 and 95% humidity in cell culture bottles (e.g. 80 cm^2 TC flasks, Nunc) with DMEM-high glucose (Sigma Aldrich, D7777) including 10% FCS (PAN Biotech, e.g. 3302-P270521) or alternatively MEM Alpha Medium (1×, liquid, Invitrogen, #22571), 10% fetal calf serum (FCS) (Invitrogen, #10270-106, heat-inactivated) and the necessary selection antibiotics.
The cell number is determined using a CASY™ cell counter (TCC, Schärfe System). Depending on the optimal density for each individual cell line, 20,000-30,000 cells/well/100 μl are seeded onto 96-well Corning™ CellBIND™ assay plates (Flat Clear Bottom Black Polystyrene Microplates, #3340). Freshly seeded cells are then left to settle for one hour at room temperature, followed by incubation for 24 hours at 37° C., 5% CO2 and 95% humidity.
The voltage-sensitive fluorescent dye from the Membrane Potential Assay Kit (Red™ Bulk format part R8123 for FLIPR, MDS Analytical Technologies™) is prepared by dissolving the contents of one vessel Membrane Potential Assay Kit Red Component A in 200 ml of extracellular buffer (ES buffer, 120 mM NaCl, 1 mM KCl, 10 mM HEPES, 2 mM CaCl2, 2 mM MgCl2, 10 mM glucose; pH 7.4). After removal of the nutrient medium, the cells are washed once with 200 μl of ES buffer, then loaded for 45 min at room temperature in 100 μl of dye solution in the dark.
Fluorescence measurements are carried out in a BMG Labtech FLUOstar™, BMG Labtech NOVOstar™ or BMG Labtech POLARstar™ instrument (525 nm excitation, 560 nm emission, Bottom Read mode). After incubation with the dye, 50 μl of the test substances in the desired concentrations, or 50 μl of ES buffer for control purposes, are applied to the wells of the assay plate and incubated for 30 min at room temperature while being shielded from light. The fluorescence intensity of the dye is then measured for 5 min and the fluorescence value F1 of each well is thus determined at a given, constant time. 15 μl of a KCl solution are then added to each well (final concentration of potassium ions 92 mM). The change in fluorescence intensity is subsequently monitored until all the relevant values have been obtained (mainly 5-30 min). At a given time post KCl application, a fluorescence value F2 is determined, in this case at the time of the fluorescence peak.
For calculation, the fluorescence intensity F2 is corrected for the fluorescence intensity F1, and the activity (ΔF/F) of the target compound on the potassium channel is determined as follows:
In order to determine whether a substance has agonistic activity,
[formula] can be related to
[formula] of control wells.
[formula] is determined by adding to the well only the buffer solution instead of the test substance, determining the value F1K of the fluorescence intensity, adding the potassium ions as described above, and measuring a value F2K of the fluorescence intensity.

T1 sequence (O43526 whole entry): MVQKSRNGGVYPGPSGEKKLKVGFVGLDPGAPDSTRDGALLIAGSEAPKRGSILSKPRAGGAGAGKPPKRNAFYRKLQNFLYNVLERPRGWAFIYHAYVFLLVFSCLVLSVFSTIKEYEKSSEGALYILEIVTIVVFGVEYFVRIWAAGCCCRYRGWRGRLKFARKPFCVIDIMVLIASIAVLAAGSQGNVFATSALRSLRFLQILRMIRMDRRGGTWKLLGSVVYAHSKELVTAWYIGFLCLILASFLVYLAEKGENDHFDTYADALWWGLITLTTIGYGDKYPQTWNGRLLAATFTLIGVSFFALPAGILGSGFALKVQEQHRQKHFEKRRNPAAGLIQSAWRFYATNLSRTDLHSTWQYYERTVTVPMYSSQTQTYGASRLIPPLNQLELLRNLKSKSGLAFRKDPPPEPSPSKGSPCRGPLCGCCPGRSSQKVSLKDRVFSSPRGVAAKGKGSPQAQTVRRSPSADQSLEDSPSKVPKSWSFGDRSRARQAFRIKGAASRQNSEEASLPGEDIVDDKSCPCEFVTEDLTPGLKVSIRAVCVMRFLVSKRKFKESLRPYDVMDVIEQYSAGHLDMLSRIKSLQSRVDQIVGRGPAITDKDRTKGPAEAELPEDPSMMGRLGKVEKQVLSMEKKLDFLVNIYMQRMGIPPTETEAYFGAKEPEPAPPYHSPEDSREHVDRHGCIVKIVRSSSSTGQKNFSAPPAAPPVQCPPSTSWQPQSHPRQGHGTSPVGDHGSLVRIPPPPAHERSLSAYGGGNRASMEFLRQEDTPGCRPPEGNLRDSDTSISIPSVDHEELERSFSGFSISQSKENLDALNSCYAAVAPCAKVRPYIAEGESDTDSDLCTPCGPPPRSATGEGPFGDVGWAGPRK
T1 sequence (O43525 whole entry): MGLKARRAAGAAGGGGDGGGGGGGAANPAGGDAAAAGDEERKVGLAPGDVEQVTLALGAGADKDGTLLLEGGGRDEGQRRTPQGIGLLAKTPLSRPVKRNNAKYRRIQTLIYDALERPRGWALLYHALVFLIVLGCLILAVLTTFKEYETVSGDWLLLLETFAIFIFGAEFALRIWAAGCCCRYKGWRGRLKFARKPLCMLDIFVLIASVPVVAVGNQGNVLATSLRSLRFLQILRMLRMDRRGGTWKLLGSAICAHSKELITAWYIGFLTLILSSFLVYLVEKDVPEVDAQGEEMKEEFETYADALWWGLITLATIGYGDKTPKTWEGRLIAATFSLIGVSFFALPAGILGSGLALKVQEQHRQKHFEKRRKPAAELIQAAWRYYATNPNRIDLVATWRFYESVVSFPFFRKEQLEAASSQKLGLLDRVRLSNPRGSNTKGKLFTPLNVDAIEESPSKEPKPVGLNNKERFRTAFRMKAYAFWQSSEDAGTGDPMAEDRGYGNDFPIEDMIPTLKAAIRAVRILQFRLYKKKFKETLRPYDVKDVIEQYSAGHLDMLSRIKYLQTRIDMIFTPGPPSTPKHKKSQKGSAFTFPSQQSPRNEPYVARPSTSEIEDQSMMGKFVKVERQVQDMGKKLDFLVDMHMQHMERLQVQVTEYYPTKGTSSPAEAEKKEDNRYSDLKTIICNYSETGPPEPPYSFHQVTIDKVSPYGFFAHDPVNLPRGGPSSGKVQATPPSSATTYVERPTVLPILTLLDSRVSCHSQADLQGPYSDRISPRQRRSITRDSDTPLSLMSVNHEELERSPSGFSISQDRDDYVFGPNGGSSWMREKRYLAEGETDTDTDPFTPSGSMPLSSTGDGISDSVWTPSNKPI

Regarding `CCSc1nc(N2CCOC(C)(C)C2)cc(C)c1C(=O)NCc1cccc(F)c1` [Example 252, 6-(2,2-Dimethyl-morpholin-4-yl)-2-ethylsulfanyl-N-[(3-fluorophenyl)-methyl]-4-methyl-pyridine-3-carboxylic acid amide], the Emax is 137% and the EC50 was 274 nM.
Taken in the same sequence, the figures for `COc1nc(N2CCOCC2)cc(C)c1C(=O)NCc1ccc(F)cc1` [Example 39, N-[(4-Fluorophenyl)-methyl]-2-methoxy-4-methyl-6-morpholin-4-yl-pyridine-3-carboxylic acid amide] were 143% and 645 nM.
Take `CCSc1nc(N2CCOCC2)cc(C)c1C(=O)NCc1ccc2c(c1)COC2` [Example 289, N-(1,3-Dihydro-isobenzofuran-5-yl-methyl)-2-ethylsulfanyl-4-methyl-6-morpholin-4-yl-pyridine-3-carboxylic acid amide]: the Emax was 129% and the EC50 came to 2820 nM.
Consider `CCSc1nc(N2CCOCC2)cc(C)c1C(=O)NCCCCC(C)(C)C` [Example 116, N-(5,5-Dimethyl-hexyl)-2-ethylsulfanyl-4-methyl-6-morpholin-4-yl-pyridine-3-carboxylic acid amide], for which the Emax was 210% and the EC50 is 131 nM.
Regarding `CCSc1nc(N2CCN3C(=O)CCC3C2)cc(C)c1C(=O)NCc1cccc(F)c1` (stereo not shown) [Example 158, 2-Ethylsulfanyl-N-[(3-fluorophenyl)-methyl]-4-methyl-6-(6-oxo-2,3,4,7,8,8a-hexahydro-1H-pyrrolo[1,2-a]pyrazin-2-yl)-pyridine-3-carboxylic acid amide], the Emax came to 60%.
Take `Cc1cc(N2CCOCC2)nc(SC(C)C)c1C(=O)NCc1cccc(F)c1` [Example 37, N-[(3-Fluorophenyl)-methyl]-2-(isopropylsulfanyl)-4-methyl-6-morpholin-4-yl-pyridine-3-carboxylic acid amide]: the Emax turned out to be 148% and the EC50 came to 99 nM.
`Cc1cc(N2CCOCC2)nc(C2CC2)c1C(=O)NCc1cc(F)cc(F)c1` [Example 333, 2-Cyclopropyl-N-[(3,5-difluoro-phenyl)-methyl]-4-methyl-6-morpholin-4-yl-pyridine-3-carboxylic acid amide]: the Emax was 169% and the EC50 stood at 98 nM.
As for `CCSc1nc(N2CCC(OC)CC2)cc(C)c1C(=O)NCc1cccc(F)c1` [Example 49, 2-Ethylsulfanyl-N-[(3-fluorophenyl)-methyl]-6-(4-methoxy-piperidin-1-yl)-4-methyl-pyridine-3-carboxylic acid amide], the Emax was determined as 143% and the EC50 is 1460 nM.
Consider `Cc1cc(N2CCOCC2)nc(C2CC2)c1C(=O)NCc1ccc(Cl)cc1` [Example 335, N-[(4-Chlorophenyl)-methyl]-2-cyclopropyl-4-methyl-6-morpholin-4-yl-pyridine-3-carboxylic acid amide], for which the Emax was 162% and the EC50 was 85 nM.
Taken in the same sequence, the figures for `CCOc1nc(N2CCOC[C@H]2C)cc(C)c1C(=O)NCCCC(C)(C)C` [Example 187, N-(4,4-Dimethyl-pentyl)-2-ethoxy-4-methyl-6-[(3R)-3-methyl-morpholin-4-yl]-pyridine-3-carboxylic acid amide] were 242% and 49 nM.
As for `CCSc1nc(N2CCC(C)(C)CC2)cc(C)c1C(=O)NCc1cccc(F)c1` [Example 74, 6-(4,4-Dimethyl-piperidin-1-yl)-2-ethylsulfanyl-N-[(3-fluorophenyl)-methyl]-4-methyl-pyridine-3-carboxylic acid amide], the Emax is 70% and the EC50 was found to be 702 nM.
Regarding `CCSc1nc(N2CCOCC2)cc(C)c1C(=O)NCCOC(C)(C)C` [Example 83, N-(2-tert-Butoxy-ethyl)-2-ethylsulfanyl-4-methyl-6-morpholin-4-yl-pyridine-3-carboxylic acid amide], the Emax is 182% and the EC50 was found to be 2800 nM.
As for `COCCOc1nc(N2CCOCC2)cc(C)c1C(=O)NCCCC(C)(C)C` [Example 349, N-(4,4-Dimethyl-pentyl)-2-(2-methoxy-ethoxy)-4-methyl-6-morpholin-4-yl-pyridine-3-carboxylic acid amide], the Emax is 216% and the EC50 is 284 nM.
Turning to `CCSc1nc(N2CCC2)cc(C)c1C(=O)NCc1cccc(F)c1` [Example 299, 6-(Azetidin-1-yl)-2-ethylsulfanyl-N-[(3-fluorophenyl)-methyl]-4-methyl-pyridine-3-carboxylic acid amide], the Emax came out at 104% and the EC50 was found to be 920 nM.
In the case of `Cc1cc(N2CCOCC2)nc(C(C)C)c1C(=O)NCc1cc(F)cc(F)c1` [Example 316, N-[(3,5-Difluoro-phenyl)-methyl]-2-isopropyl-4-methyl-6-morpholin-4-yl-pyridine-3-carboxylic acid amide], the Emax is 160% and the EC50 worked out at 29 nM.
Take `CCCc1nc(N2CCOCC2)cc(C)c1C(=O)NCCCC(C)(C)C` [Example 313, N-(4,4-Dimethyl-pentyl)-4-methyl-6-morpholin-4-yl-2-propyl-pyridine-3-carboxylic acid amide]: the Emax turned out to be 229% and the EC50 is 62 nM.
Regarding `Cc1cc(N2CCOCC2)nc(OCC(F)F)c1C(=O)NCc1ccc(F)cc1` [Example 272, 2-(2,2-Difluoro-ethoxy)-N-[(4-fluorophenyl)-methyl]-4-methyl-6-morpholin-4-yl-pyridine-3-carboxylic acid amide], the Emax is 96% and the EC50 is 78 nM.
The like results for `CCSc1nc(N2CCOC(CC)C2)cc(C)c1C(=O)NCc1cccc(F)c1` (stereo not shown) [Example 167, 6-(2-Ethyl-morpholin-4-yl)-2-ethylsulfanyl-N-[(3-fluorophenyl)-methyl]-4-methyl-pyridine-3-carboxylic acid amide] were, in that order, 137% and 113 nM.
On to `CSc1nc(N2CCOCC2)cc(C)c1C(=O)NCc1ccc(Cl)cc1` [Example 168, N-[(4-Chlorophenyl)-methyl]-4-methyl-2-methylsulfanyl-6-morpholin-4-yl-pyridine-3-carboxylic acid amide], for which the Emax was determined as 149% and the EC50 was determined as 132 nM.
The like results for `CCSc1nc(N2CC3CCC(C2)O3)cc(C)c1C(=O)NCc1cccc(F)c1` [Example 325, 2-Ethylsulfanyl-N-[(3-fluorophenyl)-methyl]-4-methyl-6-(8-oxa-3-azabicyclo[3.2.1]octan-3-yl)-pyridine-3-carboxylic acid amide] were, in that order, 153% and 282 nM.
On to `CCSc1nc(N2CCOCC2)cc(C)c1C(=O)NCCC(C)C(C)(C)C` (stereo not shown) [Example 339, 2-Ethylsulfanyl-4-methyl-6-morpholin-4-yl-N-(3,4,4-trimethyl-pentyl)-pyridine-3-carboxylic acid amide], for which the Emax is 202% and the EC50 came to 37 nM.
As for `CCOc1nc(N2CCOC[C@H]2C)cc(C)c1C(=O)NCc1ccc(Cl)cc1` [Example 273, N-[(4-Chlorophenyl)-methyl]-2-ethoxy-4-methyl-6-[(3R)-3-methyl-morpholin-4-yl]-pyridine-3-carboxylic acid amide], the Emax was 163% and the EC50 was determined as 137 nM.
